Test results taken from patent publication US20250332167A1, “PHARMACEUTICAL USE OF CDK 4/6 INHIBITOR” (priority 2021, published 2025).
“Also recorded” adds a separate entry of the source.

Test system: NCI-H2228 xenograft
Test: Human non-small cell lung cancer NCI-H2228 xenograft mouse model
Type: in vivo, mice
Excerpt: The formula for calculating tumor volume was: Tumor Volume (mm^3)=½×(a×b^2) (where “a” represents the long diameter and “b” represents the short diameter).
The relative tumor growth rate (T/C) is the percentage value of the relative tumor volume or weight between the treatment group and the control group at a certain time point. The calculation formula is as follows: • T/C(%)=TRTV/CRTV×100% (TRTV: Average RTV of the treatment group; CRTV: Average RTV of the Vehicle group; RTV=Vt/V0, where V0 is the tumor volume of the animal at the time of grouping and Vt is the tumor volume of the animal after treatment).
(T and C are the relative tumor volume (RTV) or weight (TW) of the treatment group and control group at a specific time point, respectively).
Human non-small cell lung cancer cells NCI-H2228 were cultured in RPMI-1640 medium containing 10% fetal bovine serum. Log-phase NCI-H2228 cells were collected, suspended in PBS to an appropriate concentration, and mixed with extracellular matrix gel in a 1:1 ratio for subcutaneous tumor implantation in mice. Twenty female mice were subcutaneously implanted with NCI-H2228 cells on the right side. The cells were suspended in PBS and mixed evenly with matrix gel in a 1:1 ratio (0.1 ml per mouse). When the average tumor volume reached 143 mm^3, the mice were randomly divided into groups based on tumor size. The groups received either the solvent or Compound A from Example 1 (50 mg/kg), administrated by oral intragastric administration once a day for 28 days. Tumor volume and body weight changes were regularly observed. All animals were euthanized on day 50 after cell inoculation. The tumors were weighed and photographed. The calculation methods for tumor volume, relative tumor growth rate (T/C), and tumor growth inhibition rate (TGI) were shown in Example 3.

[1] = 50 mg/kg oral once a day for 28 days, day 50 post-implantation
[2] = 50 mg/kg oral once a day, treatment period

CC1=Nc2c(F)cc(-c3nc(Nc4ccc(C5CCN(C)CC5)cn4)ncc3F)cc2C12CCCC2.O=C(O)/C=C/C(=O)O [Compound A, Fumarate salt of 5-fluoro-4-(7′-fluoro-2′-methylspiro[cyclopentane-1,3′-indol]-5′-yl)-N-(5-(1-methylpiperidin-4-yl)pyridin-2-yl)pyrimidine-2-amine]
T/C [1]: 64% | TGI [1]: 36% | Tumor relative volume (x ± SEM) [1]: 3.38 ± 0.23 | Tumor volume (x ± SEM) [1]: 506.53 mm^3 | Tumor volume (x ± SEM) (50 mg/kg oral once a day for 28 days, day 50 post-implantation, listed as CompoundA): 506.53 ± 44.73 mm^3 | Body weight change [2]: slight weight loss | Tolerability / adverse effects [2]: good tolerability; also recorded: no obvious adverse effects
